From patent publication EP0505047B1, “Rearranged taxol compounds and method of using in testing of in vivo activity” (VIRGINIA TECH INTELLECTUAL PROPERTIES, INC., priority 1991, dated 1992) come the findings set out here.

One test relates to KB cells. Description: KB cell culture assay. The class given is cell-based. Conditions: ED₅₀ of less than 4.0 indicates activity; for EC50: Homo sapiens, read-out: ED⁵⁰ (µg/ml) cell culture. Here is the method: Taxol (1), the Meerwein product (4), the acetyl chloride product (7), and A-nor-taxol (10) were tested in KB cell culture assays. […]
The test system of another test is tubulin. Description: tubulin depolymerization assay. It counts as biochemical. As to conditions: for IC50: in vitro, read-out: ID₅₀(µM) in tubulin depolymerization assay. From the text: Taxol (1), the Meerwein product (4), the acetyl chloride product (7), and A-Nor-Taxol (10) were also subjected to tubulin depolymerization assays with the results presented in Table XVI below.

≈ marks a conversion by molar mass, not a printed value.

In the case of “acetylated A-Nor-D-seco-taxol [Acetyl Chloride product (7)]”, the “ED⁵⁰ (µg/ml) cell culture” value in the test with KB cells was 2.5 µg/mL.
For the molecule `C=C(C)C12CC(OC(=O)C(O)C(NC(=O)c3ccccc3)c3ccccc3)C(C)=C1C(OC(C)=O)C(=O)C1(C)C(O)CC3OCC3(OC(C)=O)C1C2OC(=O)c1ccccc1` (stereo not drawn) [A-Nortaxol (10), A-Nortaxol], the IC50 with tubulin came out at 0.9 µM. The “activity in the tubulin depolymerization assay compared with taxol” value with tubulin (result in words) is given as “very similar to taxol”. Besides, the EC50 in the test on KB cells stood at 2 µg/mL (≈ 2.39 µM).
For the molecule `CC(=O)O[C@H]1C(=O)[C@@]2(C)[C@H]([C@H](OC(=O)c3ccccc3)[C@]3(O)C[C@H](OC(=O)[C@H](O)[C@@H](NC(=O)c4ccccc4)c4ccccc4)C(C)=C1C3(C)C)[C@]1(OC(C)=O)CO[C@@H]1C[C@@H]2O` [Taxol (1), taxol], the IC50 in the test with tubulin stood at 0.3 µM. Moreover, the EC50 in the test with KB cells was 1e-05 µg/mL (≈ 1.17e-05 µM).
